Experimental findings from PubChem BioAssay (NCI) are described below.

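Results reflect a 48-hour exposure of cells in 96-well plates to compound at five concentrations. TGI denotes the concentration required for complete inhibition of growth.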

Test systems include COLO 205 colon; EKVX NSCLC; SF-539 CNS; HCT-116 colon; CAKI-1 renal; KM12 colon; HCT-15 colon; LOX IMVI melanoma; OVCAR-3 ovarian; ACHN renal; SF-268 CNS; HL-60(TB) leukemia; RXF 393 renal; SN12C renal; K-562 leukemia; SK-MEL-5 melanoma; UO-31 renal.
Holding throughout (assay): growth of human tumour cells (NCI), 48 h

With `CC(O)(/C=C/c1ccccc1)P(=O)(O)c1ccccc1` (stereo not given), the TGI in the test on COLO 205 colon, in the test on EKVX NSCLC, in the test on SF-539 CNS, with HCT-116 colon, in the test on CAKI-1 renal and in the test with KM12 colon was above 100 µM throughout. The TGI with HCT-15 colon, with LOX IMVI melanoma, with OVCAR-3 ovarian, with ACHN renal, with SF-268 CNS and in the test with HL-60(TB) leukemia was above 100 µM each time. The TGI with RXF 393 renal, in the test with SN12C renal, in the test with K-562 leukemia and with SK-MEL-5 melanoma was above 100 µM each time.

In the case of `O=C1NCCCC12CCCNC2=O`, the TGI with COLO 205 colon, in the test on EKVX NSCLC, with SF-539 CNS, in the test with HCT-116 colon, in the test on KM12 colon and in the test with HCT-15 colon was above 100 µM in each case. The TGI with LOX IMVI melanoma, in the test on UO-31 renal, in the test with OVCAR-3 ovarian, in the test on ACHN renal, in the test with SF-268 CNS and with HL-60(TB) leukemia was above 100 µM throughout. The TGI with RXF 393 renal, in the test on SN12C renal, in the test with K-562 leukemia and in the test on SK-MEL-5 melanoma was above 100 µM throughout.

Take `Cc1cc(C)nc(NC(=S)Nc2ccccc2Cl)c1`: the TGI in the test with COLO 205 colon, in the test on EKVX NSCLC, in the test on SF-539 CNS, in the test on HCT-116 colon, with CAKI-1 renal and in the test with KM12 colon was above 100 µM each time. For the same compound, the TGI in the test on HCT-15 colon, in the test on LOX IMVI melanoma, in the test with UO-31 renal, with OVCAR-3 ovarian, in the test on SF-268 CNS and in the test on HL-60(TB) leukemia was above 100 µM each time. Also, the TGI with RXF 393 renal, in the test on SN12C renal, in the test on K-562 leukemia and in the test with SK-MEL-5 melanoma was above 100 µM in each case.

`CN(C(=O)c1ccc(Cl)cc1)C(=S)N1CCN(c2ccccn2)CC1`: the TGI in the test on COLO 205 colon, in the test with SF-539 CNS, in the test on HCT-116 colon, in the test with CAKI-1 renal, in the test with KM12 colon and in the test with HCT-15 colon was above 100 µM in each case. The TGI in the test on LOX IMVI melanoma, in the test on UO-31 renal, with OVCAR-3 ovarian, in the test with ACHN renal, in the test with SF-268 CNS and in the test on HL-60(TB) leukemia was above 100 µM each time. The TGI in the test with RXF 393 renal, in the test with SN12C renal, in the test on K-562 leukemia and with SK-MEL-5 melanoma was above 100 µM throughout.

As to `COc1c(OC)c(N)c2cc(C)c(=O)c(C)cc2c1N`, the TGI in the test on COLO 205 colon, in the test on EKVX NSCLC, in the test on SF-539 CNS, with HCT-116 colon, in the test with CAKI-1 renal and in the test on KM12 colon was above 100 µM throughout. In addition, the TGI in the test with HCT-15 colon, in the test on LOX IMVI melanoma, in the test with UO-31 renal, in the test on OVCAR-3 ovarian, in the test with ACHN renal and in the test with SF-268 CNS was above 100 µM in each case. Moreover, the TGI in the test with HL-60(TB) leukemia, with RXF 393 renal, with SN12C renal, in the test with K-562 leukemia and in the test with SK-MEL-5 melanoma was above 100 µM each time.

As for `O=C1CCCCC1=C(I)I`, the TGI in the test with COLO 205 colon worked out at 28.8 µM; in the test with EKVX NSCLC it was 4.1 µM; with SF-539 CNS, 36.6 µM; in the test on HCT-116 colon, 30.9 µM; in the test on KM12 colon, 28.8 µM; with UO-31 renal, 30.5 µM. The TGI in the test on OVCAR-3 ovarian was 30.3 µM; in the test on ACHN renal it was 31.7 µM; with SF-268 CNS, 57.2 µM; in the test on HL-60(TB) leukemia, 26.2 µM; in the test on RXF 393 renal it was 30.5 µM; with SN12C renal it was 55.6 µM. Moreover, the TGI in the test with K-562 leukemia came out at 95.8 µM; in the test with SK-MEL-5 melanoma it was 33 µM.

In the case of `O=C(c1ccco1)n1c2ccc(Br)cc2c2nc3ccccc3nc21`, the TGI in the test on COLO 205 colon was above 100 µM; in the test on EKVX NSCLC, above 100 µM; with SF-539 CNS it was above 100 µM; with HCT-116 colon it was above 100 µM; in the test on CAKI-1 renal, above 100 µM; in the test on KM12 colon, 97.6 µM. Besides, the TGI in the test on HCT-15 colon, with LOX IMVI melanoma, with UO-31 renal, with OVCAR-3 ovarian, with ACHN renal and in the test on SF-268 CNS was above 100 µM in each case. Besides, the TGI in the test with HL-60(TB) leukemia, with RXF 393 renal, with SN12C renal, in the test on K-562 leukemia and in the test on SK-MEL-5 melanoma was above 100 µM in each case.

Regarding `COP(=O)(OC)C(=NCc1ccccc1)NNc1ccc([N+](=O)[O-])cc1`, the TGI in the test on COLO 205 colon was above 100 µM; in the test with SF-539 CNS it was 44.7 µM; in the test on HCT-116 colon, 69 µM; in the test on CAKI-1 renal, above 100 µM; with KM12 colon, above 100 µM; with HCT-15 colon, above 100 µM. Further, the TGI in the test with OVCAR-3 ovarian is above 100 µM; in the test on ACHN renal, above 100 µM; in the test with SF-268 CNS, 84.9 µM; with HL-60(TB) leukemia it was 46 µM; in the test on K-562 leukemia, above 100 µM; with SK-MEL-5 melanoma, 34.8 µM.

For `Nc1ccc(C(=O)NN2C(=O)C(Cl)C2c2cc(Br)ccc2O)cc1` (stereo not given), the TGI in the test on COLO 205 colon is above 100 µM; in the test on EKVX NSCLC, above 100 µM; in the test on SF-539 CNS, above 100 µM; in the test on HCT-116 colon, 32.5 µM; with CAKI-1 renal it was above 100 µM; in the test on KM12 colon, above 100 µM. The TGI with HCT-15 colon, in the test on LOX IMVI melanoma, in the test with UO-31 renal, with OVCAR-3 ovarian, in the test with ACHN renal and with SF-268 CNS was above 100 µM throughout. Further, the TGI in the test on HL-60(TB) leukemia is 78.8 µM; with SN12C renal it was above 100 µM; with K-562 leukemia, above 100 µM; in the test with SK-MEL-5 melanoma, above 100 µM.
